Patent US20200008426A1, “ACTIVE COMPOUND COMBINATIONS” (BAYER AKTIENGESELLSCHAFT, priority 2017, published 2020)

Assay: LogP by HPLC on reversed phase columns (EEC directive 79/831 Annex V.A8)
Conditions: Table 2, formula (V), LC-UV; for LogP [a]: acidic range, 0.1% formic acid in water and acetonitrile; for LogP [b]: neutral range, 0.001 molar ammonium acetate in water and acetonitrile
Method: Measurement of LogP values was performed according to EEC directive 79/831 Annex V.A8 by HPLC (High Performance Liquid Chromatography) on reversed phase columns with the following methods:
Lambda-max-values were determined using UV-spectra from 200 nm to 400 nm and the peak values of the chromatographic signals.

Structure (SMILES) | LogP [a] | LogP [b]
CC(=O)c1ccc(Oc2ccc(Cl)cc2)nc1OC(F)(F)F [V.06] | 4.37^[a] | –
CC(=O)c1cnc(Oc2ccc(Cl)cc2F)cc1C(F)(F)F [V.07] | 4.09^[a] | –
CC(=O)c1cnc(Oc2ccccc2)cc1Cl [V.08] | 2.94 | 2.86
CC(=O)c1cnc(Oc2ccc(Cl)cc2)cc1Cl [V.09] | 3.52 | 3.42
CC(=O)c1ccc(Oc2ccc(Cl)cc2)nc1Cl [V.10] | 3.47 | 3.36
CC(=O)c1ccc(Oc2ccc(Cl)c(Cl)c2)nc1Cl [V.11] | 4.10^[a] | –
CC(=O)c1ccc(Oc2ccc(F)cc2)nc1Cl [V.12] | 3.11^[a] | –
CC(=O)c1ccc(Oc2ccc(C(F)F)cc2)nc1Cl [V.14] | 3.15^[a] | –
CC(=O)c1cnc(Oc2ccc(OC(F)(F)F)cc2)cc1C(F)(F)F [V.15] | 4.20^[a] | –
CC(=O)c1ccc(Oc2ccc(S(F)(F)(F)(F)F)cc2)nc1C(F)(F)F [V.16] | 4.09^[a] | –
CC(=O)c1ccc(Oc2ccc(C(F)(F)F)cc2)nc1C(F)(F)F [V.17] | 3.96^[a] | –
CC(=O)c1cnc(Oc2ccc(C(F)(F)F)cc2)cc1Cl [V.18] | 3.87^[a] | –
CC(=O)c1cnc(Oc2ccc(Cl)cc2)cc1C(C)=O [V.19] | 3.11^[a] | –
CC(=O)c1ccc(Oc2ccc(Br)cc2)nc1C(F)(F)F [V.20] | 3.85^[a] | –
CC(=O)c1ccc(Oc2ccccc2)nc1Cl [V.21] | 2.94 | 2.85
CC(=O)c1cnc(Oc2ccc(Cl)cc2)cc1Cl [V.22] | 3.51^[a] | –
CC(=O)c1ccc(Oc2ccc(Cl)cc2)nc1F [V.24] | 3.51^[a] | –
CC(=O)c1cnc(Oc2ccc(C(F)(F)F)cc2)cc1C(F)(F)F [V.25] | 4.04^[a] | –
CC(=O)c1ccc(Oc2ccc(Cl)cc2)nc1Cl [V.26] | 3.45^[a] | –
CC(=O)c1cnc(Oc2ccc(Br)cc2)cc1C(F)(F)F [V.27] | 3.99^[a] | –
CC(=O)c1ccc(Oc2ccc(OC(F)(F)F)cc2)nc1Cl [V.28] | 3.89^[a] | –
COc1ccc(Oc2ccc(C(C)=O)c(Cl)n2)c(Cl)c1 [V.29] | 3.44^[a] | –
CC(=O)c1ccc(Oc2ccc(S(F)(F)(F)(F)F)cc2)nc1Cl [V.30] | 3.99^[a] | –
CC(=O)c1ccc(Oc2c(F)cc(Cl)cc2F)nc1C(F)(F)F [V.31] | 4.06^[a] | –
CC(=O)c1ccc(Oc2ccc(C(F)F)cc2)nc1C(F)(F)F [V.32] | 3.26^[a] | –
O=C(c1ccc(Oc2ccc(C(F)(F)F)cc2)nc1C(F)(F)F)C1CC1 [V.39] | 4.37^[a] | –
O=Cc1ccc(Oc2ccc(C(=O)C3CC3)c(C(F)(F)F)n2)cc1 [V.42] | 3.21^[a] | –
O=C(c1ccc(Oc2ccc(S(F)(F)(F)(F)F)cc2)nc1C(F)(F)F)C1CC1 [V.43] | 4.67^[a] | –
